Assay results taken from patent US12570642B2, “GLP-IR modulating compounds” (Gilead Sciences, Inc., priority 2021, dated 2026).

Molecular target: GLP-1R (Homo sapiens, UniProt P43220)
Experiment: GLP-1R Activation - cAMP Assay
Format: cell-based
Conditions: cAMP increase in CHO cells stably expressing GLP-1R; each compound run on one of the two cAMP assays (Assay 1 or Assay 2, not specified)
In short: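 CHO cells stably expressing GLP-1R, plated at 1,000 cells/well overnight, then equilibrated 1 h in HBSS with 20 mM Hepes and 0.1% BSA. Agonist added as 10-point dose response for 30 min at 37 °C. cAMP measured by HTRF (Cisbio Gs Dynamic kit); EC50 from sigmoidal fit.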

Chain of GLP-1R (P43220 24-463): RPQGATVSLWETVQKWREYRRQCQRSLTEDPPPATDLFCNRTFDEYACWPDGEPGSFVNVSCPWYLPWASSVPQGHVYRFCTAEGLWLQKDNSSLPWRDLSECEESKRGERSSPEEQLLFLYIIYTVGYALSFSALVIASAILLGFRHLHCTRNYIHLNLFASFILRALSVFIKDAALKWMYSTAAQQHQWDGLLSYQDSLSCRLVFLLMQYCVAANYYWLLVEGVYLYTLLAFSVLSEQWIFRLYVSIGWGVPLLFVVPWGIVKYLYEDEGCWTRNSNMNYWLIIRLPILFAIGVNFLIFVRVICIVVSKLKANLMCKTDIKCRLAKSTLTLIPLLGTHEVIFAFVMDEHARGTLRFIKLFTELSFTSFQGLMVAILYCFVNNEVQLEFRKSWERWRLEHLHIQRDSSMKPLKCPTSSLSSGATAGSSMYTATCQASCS

| EC50 | SMILES |
| --- | --- |
| 0.077 nM | COC[C@H]1COC[C@H]1n1c(Cc2cc(F)c(-c3ccc(F)c(OCc4ccc(C#N)cc4)n3)cc2F)nc2ccc(C(=O)O)cc21 [Example 467, 2-(4-(6-((4-cyanobenzyl)oxy)-5-fluoropyridin-2-yl)-2,5-difluorobenzyl)-1-((3S,4S)-4-(methoxymethyl)tetrahydrofuran-3-yl)-1H-benzo[d]imidazole-6-carboxylic acid] |
| 0.041 nM | C[C@H]1COC[C@H]1n1c(Cc2cc(F)c(-c3ccc(F)c(OCc4ccc(Cl)cc4F)n3)cc2F)nc2ccc(C(=O)O)cc21 [Example 471, 2-(4-(6-((4-chloro-2-fluorobenzyl)oxy)-5-fluoropyridin-2-yl)-2,5-difluorobenzyl)-1-((3S,4R)-4-methyltetrahydrofuran-3-yl)-1H-benzo[d]imidazole-6-carboxylic acid] |
| 0.069 nM | C[C@H]1COC[C@H]1n1c(Cc2cc(F)c(-c3cccc(OCc4ccc(Cl)cc4F)n3)cc2F)nc2ccc(C(=O)O)cc21 [Example 472, 2-(4-(6-((4-chloro-2-fluorobenzyl)oxy)pyridin-2-yl)-2,5-difluorobenzyl)-1-((3S,4R)-4-methyltetrahydrofuran-3-yl)-1H-benzo[d]imidazole-6-carboxylic acid] |
| 0.171 nM | CC1(C)COC[C@H]1n1c(Cc2cc(F)c(-c3ccc(F)c(OCc4ccccc4F)n3)cc2F)nc2ccc(C(=O)O)cc21 [Example 477, (S)-2-(2,5-difluoro-4-(5-fluoro-6-((2-fluorobenzyl)oxy)pyridin-2-yl)benzyl)-1-(4,4-dimethyltetrahydrofuran-3-yl)-1H-benzo[d]imidazole-6-carboxylic acid] |
| 0.223 nM | C[C@H]1COC[C@H]1n1c(Cc2cc(F)c(-c3ccc(F)c(OCc4ccc(C#N)cc4)n3)cc2F)nc2ccc(C(=O)O)cc21 [Example 480, 2-(4-(6-((4-cyanobenzyl)oxy)-5-fluoropyridin-2-yl)-2,5-difluorobenzyl)-1-((3S,4R)-4-methyltetrahydrofuran-3-yl)-1H-benzo[d]imidazole-6-carboxylic acid] |
| 0.883 nM | C[C@H]1COC[C@H]1n1c(Cc2cc(F)c(-c3ccc(F)c(OCc4cc(F)c(C#N)cc4F)n3)cc2F)nc2ccc(C(=O)O)cc21 [Example 481, 2-(4-(6-((4-cyano-2,5-difluorobenzyl)oxy)-5-fluoropyridin-2-yl)-2,5-difluorobenzyl)-1-((3S,4R)-4-methyltetrahydrofuran-3-yl)-1H-benzo[d]imidazole-6-carboxylic acid] |
| 0.011 nM | CC1(C)COC[C@H]1n1c(Cc2c(F)cc(-c3ccc(F)c(OCc4ccc(C#N)cc4F)n3)c(F)c2F)nc2ccc(C(=O)O)cc21 [Example 482, (S)-2-(4-(6-((4-cyano-2-fluorobenzyl)oxy)-5-fluoropyridin-2-yl)-2,3,6-trifluorobenzyl)-1-(4,4-dimethyltetrahydrofuran-3-yl)-1H-benzo[d]imidazole-6-carboxylic acid] |
| 0.155 nM | C[C@H]1COC[C@H]1n1c(Cc2cc(F)c(-c3ccnc(OCc4ccc(Cl)cc4F)n3)cc2F)nc2ccc(C(=O)O)cc21 [Example 484, 2-(4-(2-((4-chloro-2-fluorobenzyl)oxy)pyrimidin-4-yl)-2,5-difluorobenzyl)-1-((3S,4R)-4-methyltetrahydrofuran-3-yl)-1H-benzo[d]imidazole-6-carboxylic acid] |
| 0.054 nM | C[C@H]1COC[C@H]1n1c(Cc2cc(F)c(-c3ccc(F)c(OCc4ccc(C#N)cc4F)n3)cc2F)nc2ccc(C(=O)O)cc21 [Example 486, 2-(4-(6-((4-cyano-2-fluorobenzyl)oxy)-5-fluoropyridin-2-yl)-2,5-difluorobenzyl)-1-((3S,4R)-4-methyltetrahydrofuran-3-yl)-1H-benzo[d]imidazole-6-carboxylic acid] |

Further lines, the molecule ahead of its results:

| SMILES | EC50 |
| --- | --- |
| COc1cc(C#N)ccc1COc1cccc(-c2cc(F)c(Cc3nc4ccc(C(=O)O)cc4n3[C@@H]3COCC3(C)C)cc2F)n1 [Example 461, (S)-2-(4-(6-((4-cyano-2-methoxybenzyl)oxy)pyridin-2-yl)-2,5-difluorobenzyl)-1-(4,4-dimethyltetrahydrofuran-3-yl)-1H-benzo[d]imidazole-6-carboxylic acid] | 0.067 nM |
| COc1cc(Cl)ccc1COc1cccc(-c2cc(F)c(Cc3nc4ccc(C(=O)O)cc4n3[C@@H]3COCC3(C)C)cc2F)n1 [Example 462, (S)-2-(4-(6-((4-chloro-2-methoxybenzyl)oxy)pyridin-2-yl)-2,5-difluorobenzyl)-1-(4,4-dimethyltetrahydrofuran-3-yl)-1H-benzo[d]imidazole-6-carboxylic acid] | 0.141 nM |
| Cc1ccc(COc2cccc(-c3cc(F)c(Cc4nc5ccc(C(=O)O)cc5n4[C@@H]4COCC4(C)C)cc3F)n2)c(F)c1 [Example 463, (S)-2-(2,5-difluoro-4-(6-((2-fluoro-4-methylbenzyl)oxy)pyridin-2-yl)benzyl)-1-(4,4-dimethyltetrahydrofuran-3-yl)-1H-benzo[d]imidazole-6-carboxylic acid] | 0.209 nM |
| CC1(C)COC[C@H]1n1c(Cc2cc(F)c(-c3cccc(OCc4ccc(F)cc4Cl)n3)cc2F)nc2ccc(C(=O)O)cc21 [Example 464, (S)-2-(4-(6-((2-chloro-4-fluorobenzyl)oxy)pyridin-2-yl)-2,5-difluorobenzyl)-1-(4,4-dimethyltetrahydrofuran-3-yl)-1H-benzo[d]imidazole-6-carboxylic acid] | 0.172 nM |
| Cc1cc(F)ccc1COc1cccc(-c2cc(F)c(Cc3nc4ccc(C(=O)O)cc4n3[C@@H]3COCC3(C)C)cc2F)n1 [Example 465, (S)-2-(2,5-difluoro-4-(6-((4-fluoro-2-methylbenzyl)oxy)pyridin-2-yl)benzyl)-1-(4,4-dimethyltetrahydrofuran-3-yl)-1H-benzo[d]imidazole-6-carboxylic acid] | 0.18 nM |
| CC1(C)COC[C@H]1n1c(Cc2cc(F)c(-c3cccc(OCc4ccc(F)cc4F)n3)cc2F)nc2ccc(C(=O)O)cc21 [Example 466, (S)-2-(4-(6-((2,4-difluorobenzyl)oxy)pyridin-2-yl)-2,5-difluorobenzyl)-1-(4,4-dimethyltetrahydrofuran-3-yl)-1H-benzo[d]imidazole-6-carboxylic acid] | 0.124 nM |
| COC[C@H]1COC[C@H]1n1c(Cc2cc(F)c(-c3cccc(OCc4ccc(C#N)cc4)n3)cc2F)nc2ccc(C(=O)O)cc21 [Example 468, 2-(4-(6-((4-cyanobenzyl)oxy)pyridin-2-yl)-2,5-difluorobenzyl)-1-((3S,4S)-4-(methoxymethyl)tetrahydrofuran-3-yl)-1H-benzo[d]imidazole-6-carboxylic acid] | 0.118 nM |
| CC1(C)COC[C@H]1n1c(Cc2cc(F)c(-c3cccc(OCc4ccc(Cl)cc4C(F)(F)F)n3)cc2F)nc2ccc(C(=O)O)cc21 [Example 469, (S)-2-(4-(6-((4-chloro-2-(trifluoromethyl)benzyl)oxy)pyridin-2-yl)-2,5-difluorobenzyl)-1-(4,4-dimethyltetrahydrofuran-3-yl)-1H-benzo[d]imidazole-6-carboxylic acid] | 1.6 nM |
| CC1(C)COC[C@H]1n1c(Cc2cc(F)c(-c3cccc(OCc4ccc(C(F)(F)F)nn4)n3)cc2F)nc2ccc(C(=O)O)cc21 [Example 470, (S)-2-(2,5-difluoro-4-(6-((6-(trifluoromethyl)pyridazin-3-yl)methoxy)pyridin-2-yl)benzyl)-1-(4,4-dimethyltetrahydrofuran-3-yl)-1H-benzo[d]imidazole-6-carboxylic acid] | 1.61 nM |
| CC1(C)COC[C@H]1n1c(Cc2cc(F)c(-c3ccc(F)c(OCc4c(F)cccc4F)n3)cc2F)nc2ccc(C(=O)O)cc21 [Example 475, (S)-2-(4-(6-((2,6-difluorobenzyl)oxy)-5-fluoropyridin-2-yl)-2,5-difluorobenzyl)-1-(4,4-dimethyltetrahydrofuran-3-yl)-1H-benzo[d]imidazole-6-carboxylic acid] | 0.601 nM |
| CC1(C)COC[C@H]1n1c(Cc2cc(F)c(-c3cccc(OCc4c(F)cccc4F)n3)cc2F)nc2ccc(C(=O)O)cc21 [Example 476, (S)-2-(4-(6-((2,6-difluorobenzyl)oxy)pyridin-2-yl)-2,5-difluorobenzyl)-1-(4,4-dimethyltetrahydrofuran-3-yl)-1H-benzo[d]imidazole-6-carboxylic acid] | 0.614 nM |
| CC1(C)COC[C@H]1n1c(Cc2cc(F)c(-c3cccc(OCc4ccccc4F)n3)cc2F)nc2ccc(C(=O)O)cc21 [Example 478, (S)-2-(2,5-difluoro-4-(6-((2-fluorobenzyl)oxy)pyridin-2-yl)benzyl)-1-(4,4-dimethyltetrahydrofuran-3-yl)-1H-benzo[d]imidazole-6-carboxylic acid] | 0.25 nM |
| CC1(C)COC[C@H]1n1c(Cc2c(F)cc(-c3ccc(F)c(OCc4ccc(C#N)cc4F)n3)c(F)c2F)nc2c(F)cc(C(=O)O)cc21 [Example 479, (S)-2-(4-(6-((4-cyano-2-fluorobenzyl)oxy)-5-fluoropyridin-2-yl)-2,3,6-trifluorobenzyl)-1-(4,4-dimethyltetrahydrofuran-3-yl)-4-fluoro-1H-benzo[d]imidazole-6-carboxylic acid] | 0.249 nM |
| CC1(C)COC[C@H]1n1c(Cc2cc(F)c(-c3ccc(F)c(OCc4cc(F)c(C#N)cc4F)n3)cc2F)nc2c(F)cc(C(=O)O)cc21 [Example 483, (S)-2-(4-(6-((4-cyano-2,5-difluorobenzyl)oxy)-5-fluoropyridin-2-yl)-2,5-difluorobenzyl)-1-(4,4-dimethyltetrahydrofuran-3-yl)-4-fluoro-1H-benzo[d]imidazole-6-carboxylic acid] | 0.022 nM |
| COCCn1c(Cc2c(F)cc(-c3ccc(F)c(OCc4ccc(Cl)cc4F)n3)c(F)c2F)nc2c(F)cc(C(=O)O)cc21 [Example 485, 2-(4-(6-((4-chloro-2-fluorobenzyl)oxy)-5-fluoropyridin-2-yl)-2,3,6-trifluorobenzyl)-4-fluoro-1-(2-methoxyethyl)-1H-benzo[d]imidazole-6-carboxylic acid] | 0.203 nM |
